Assay [1] addresses T1, SLY (hemolysin) (Streptococcus suis, UniProt Q55996). The assay is described as follows: biochemical. To be noted: read-out: % inhibition at 16 μg/mL.
For assay [2], the target named is T1, SLY (hemolysin). The assay is described as follows: biochemical.

T1 sequence (Q55996 28-497 limits assumed): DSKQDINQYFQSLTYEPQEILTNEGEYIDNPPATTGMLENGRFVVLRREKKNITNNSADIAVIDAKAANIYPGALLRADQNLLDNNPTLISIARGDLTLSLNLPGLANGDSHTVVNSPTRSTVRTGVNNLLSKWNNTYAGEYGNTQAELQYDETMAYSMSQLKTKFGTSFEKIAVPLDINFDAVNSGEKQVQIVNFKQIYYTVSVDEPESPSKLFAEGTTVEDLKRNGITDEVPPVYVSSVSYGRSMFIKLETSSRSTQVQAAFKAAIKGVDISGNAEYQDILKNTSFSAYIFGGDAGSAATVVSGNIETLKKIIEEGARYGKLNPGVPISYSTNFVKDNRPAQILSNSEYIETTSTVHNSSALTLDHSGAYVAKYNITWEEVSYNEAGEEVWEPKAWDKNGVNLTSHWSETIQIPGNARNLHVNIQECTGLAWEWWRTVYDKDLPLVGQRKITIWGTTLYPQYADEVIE

Regarding `Cc1ccc([C@@H]2O[C@H](CO)[C@@H](O)[C@H](O)[C@H]2O)cc1Cc1ccc(-c2ccc(F)cc2)s1` [canagliflozin], the inhibition at 16 µg/mL on SLY (hemolysin) [1] came out at 76%. Also, the dissociation constant Kd at SLY (hemolysin) [2] is 0.9 µM.
